{
  "source": "patent US10933032B2",
  "about": "“Methods for the treatment of cancer using coenzyme Q10 combination therapies” (Berg LLC, priority 2013, dated 2021)",
  "test_in_all_cases": "Induction of early apoptosis (Bcl-2, annexin V, or caspase activation)",
  "type_in_all_cases": "cell-based",
  "key": {"[1]": {"test_system": "Hep3B", "details": "LIVER: Hep3B", "description": "(§1) The effects of Coenzyme Q10 treatment on a variety of oncogenic and normal cell lines were examined and compared. The sensitivity of cells to Coenzyme Q10 was assessed by monitoring induction of apoptosis. CoQ10 treatment of cells was carried out as described in detail below in the Materials and Methods. Induction of apoptosis was assessed in the treated cells by monitoring indicators of early apoptosis (e.g., Bcl-2 expression, caspase activation and by using annexin V assays) as described below. From these studies, the minimal CoQ10 dosage, e.g., concentration of CoQ10 and time of treatment, required to induce apoptosis in the panel of cell lines was determined.\n(§2) Cells were cultured in T-75 flasks with relevant medium supplemented with 10% Fetal Bovine Serum (FBS), 1% PSA (penicillin, streptomycin, amphotericin B) (Invitrogen and Cellgro) in a 37° C. incubator with 5% CO2 levels until 70-80% confluence was reached. To harvest cells for treatment, flasks were primed with 1 mL Trypsin, aspirated, trypsinized with an additional 3 mL, and incubated at 37° C. for 3-5 minutes. Cells were then neutralized with an equal volume of media and the subsequent solution was centrifuged at […] for 8 minutes. The supernatant was aspirated and the cells were resuspended with 8.5 ml of media. A mixture of 500 ul of the resuspension and 9.5 ml of […] was read twice by a coulter counter and the appropriate number of cells to be seeded into each dish was determined. Control and concentration ranging from 0-200 μM groups were examined in triplicate. From a 500 μM CoQ-10 stock solution, serial dilutions were performed to achieve desired experimental concentration in appropriate dishes. Dishes were incubated in a 37° C. incubator with 5% CO2 levels for 0-72 hours depending on cell type and experimental protocol.\n(§3) Following cell treatment incubation period was complete, protein isolation was performed. Dishes of all treatment groups were washed twice with 2 ml, and once with 1 ml of ice cold 1× Phosphate Buffered Saline (PBS). The PBS was aspirated from the dishes after the initial 2 washes only. Cells were gently scraped and collected into microcentrifuge tubes using the final volume from the third wash and centrifuged at 10,000 rpm for 10 minutes. After centrifugation, the supernatant was aspirated and the pellet was lysed with 50 uL of lysis buffer (1 uL of protease and phosphotase inhibitor for every 100 uL of lysis buffer). Samples were then frozen overnight at −20° C.\n(§4) After the cell treatment incubation period was complete, protein isolation was performed. Flasks of all treatment groups were washed twice with 5 mL, and once with 3 mL of ice cold 1×PBS. The PBS was aspirated from the flasks after the first 2 washes only. Cells were gently scraped and collected into 15 mL centrifuge tubes using the final volume from the third wash and centrifuged for at 10,000 rpm for 10 minutes. After centrifugation, the supernatant was aspirated and the pellet was lysed with an appropriate amount of lysis buffer (1 uL of protease and phosphotase inhibitor for every 100 uL of lysis buffer). Lysis buffer volume was dependent on pellet size. Samples were transferred in microcentrifuge tubes and frozen overnight at −20° C.\n(§5) Samples were thawed at […] and sonicated to ensure homogenization the day following protein isolation. Protein quantification was performed using the micro BCA protein assay kit (Pierce). To prepare samples for Immuno-blotting, a 1:19 solution of betamercaptoethanol (Sigma) to sample buffer (Bio-Rad) was prepared. Samples were diluted 1:1 with the betamercaptoethanol-sample buffer solution, boiled at 95° C. for 5 minutes, and frozen overnight at −20° C.\n(§6) The volume of sample to load per well was determined using the raw mean concentration of protein obtained from the BCA protein assay. Approximately 30-60 μg of protein were loaded for each treatment time point. […]"}, "[2]": {"test_system": "Osteosarcoma (143b)", "details": "BONE: Osteosarcoma (143b)", "description": "as §1, §2, §3, §4, §5, §6"}, "[3]": {"test_system": "HepG2", "details": "LIVER: HepG2", "description": "as §1, §2, §3, §4, §5, §6"}, "[4]": {"test_system": "PaCa2", "details": "PANCREAS: PaCa2", "description": "as §1, §2, §3, §4, §5, §6"}, "[5]": {"test_system": "MCF-7", "details": "BREAST: MCF-7", "description": "as §1, §2, §3, §4, §5, §6"}, "[6]": {"test_system": "Fibroblasts (nFib)", "details": "SKIN: Fibroblasts (nFib)", "description": "as §1, §2, §3, §4, §5, §6"}, "[7]": {"test_system": "SCC, Squamous cell carcinoma", "details": "SKIN: SCC", "description": "as §1, §2, §3, §4, §5, §6"}, "[8]": {"test_system": "SkBr-3", "details": "BREAST: SkBr-3", "description": "as §1, §2, §3, §4, §5, §6"}, "[9]": {"test_system": "Aortic smooth muscle (HASMC)", "details": "Heart: Aortic smooth muscle (HASMC)", "description": "as §1, §2, §3, §4, §5, §6"}, "[10]": {"test_system": "Melanocytes (Hema, LP)", "details": "SKIN: Melanocytes (Hema, LP)", "description": "as §1, §2, §3, §4, §5, §6"}, "[11]": {"test_system": "Melanoma (Skmel 28)", "details": "SKIN: Melanoma (Skmel 28)", "description": "as §1, §2, §3, §4, §5, §6"}, "[12]": {"test_system": "Ewing's sarcoma (NCI)", "details": "BONE: Ewing's sarcoma (NCI)", "description": "as §1, §2, §3, §4, §5, §6"}, "[13]": {"test_system": "BT-20", "details": "BREAST: BT-20", "description": "as §1, §2, §3, §4, §5, §6"}, "[14]": {"test_system": "MDA MB 468", "details": "BREAST: MDA MB 468", "description": "as §1, §2, §3, §4, §5, §6"}, "[15]": {"test_system": "Keratinocytes (Heka, Hekn)", "details": "SKIN: Keratinocytes (Heka, Hekn)", "description": "as §1, §2, §3, §4, §5, §6"}, "[16]": {"test_system": "Melanoma (Skmel 2)", "details": "SKIN: Melanoma (Skmel 2)", "description": "as §1, §2, §3, §4, §5, §6"}, "[17]": {"test_system": "Mammary fiboblasts: 184A1 and 184B5) (Lawrence Berkeley)", "details": "BREAST: Mammary fiboblasts: 184A1 and 184B5", "description": "as §1, §2, §3, §4, §5, §6"}, "[18]": {"test_system": "ZR-75", "details": "BREAST: ZR-75", "description": "as §1, §2, §3, §4, §5, §6"}},
  "data": [
    {"compound": "COC1=C(OC)C(=O)C(C/C=C(\\C)CC/C=C(\\C)CC/C=C(\\C)CC/C=C(\\C)CC/C=C(\\C)CC/C=C(\\C)CC/C=C(\\C)CC/C=C(\\C)CC/C=C(\\C)CCC=C(C)C)=C(C)C1=O", "note": "[CoQ10, Coenzyme Q10]", "values": [
      {"measurement": "Indication of Early apoptosis (Bcl-2, annexin V, or caspase activation)", "setting": "[1]", "result": "Very Strong"},
      {"measurement": "Minimal CoQ10 concentration required for induction of early apoptosis, Concentration", "setting": "[1]", "result": 50, "unit": "µM"},
      {"measurement": "Minimal treatment time required for induction of early apoptosis, Time", "setting": "[1]", "result": 24, "unit": "h"},
      {"measurement": "Indication of Early apoptosis (Bcl-2, annexin V, or caspase activation)", "setting": "[2]", "result": "Very Strong"},
      {"measurement": "Minimal CoQ10 concentration required for induction of early apoptosis, Concentration", "setting": "[2]", "result": 50, "unit": "µM"},
      {"measurement": "Minimal treatment time required for induction of early apoptosis, Time", "setting": "[2]", "result": 48, "unit": "h"},
      {"measurement": "Indication of Early apoptosis (Bcl-2, annexin V, or caspase activation)", "setting": "[3]", "result": "Very Strong"},
      {"measurement": "Minimal CoQ10 concentration required for induction of early apoptosis, Concentration", "setting": "[3]", "result": 50, "unit": "µM"},
      {"measurement": "Minimal treatment time required for induction of early apoptosis, Time", "setting": "[3]", "result": 24, "unit": "h"},
      {"measurement": "Indication of Early apoptosis (Bcl-2, annexin V, or caspase activation)", "setting": "[4]", "result": "Very Strong"},
      {"measurement": "Minimal CoQ10 concentration required for induction of early apoptosis, Concentration", "setting": "[4]", "result": 25, "unit": "µM"},
      {"measurement": "Minimal treatment time required for induction of early apoptosis, Time", "setting": "[4]", "result": 24, "unit": "h"},
      {"measurement": "Indication of Early apoptosis (Bcl-2, annexin V, or caspase activation)", "setting": "[5]", "result": "Strong"},
      {"measurement": "Minimal CoQ10 concentration required for induction of early apoptosis, Concentration", "setting": "[5]", "result": 50, "unit": "µM"},
      {"measurement": "Minimal treatment time required for induction of early apoptosis, Time", "setting": "[5]", "result": 48, "unit": "h"},
      {"measurement": "Indication of Early apoptosis (Bcl-2, annexin V, or caspase activation)", "setting": "[6]", "result": "None"},
      {"measurement": "Indication of Early apoptosis (Bcl-2, annexin V, or caspase activation)", "setting": "[7]", "result": "Very Strong"},
      {"measurement": "Minimal CoQ10 concentration required for induction of early apoptosis, Concentration", "setting": "[7]", "result": 25, "unit": "µM"},
      {"measurement": "Minimal treatment time required for induction of early apoptosis, Time", "setting": "[7]", "result": 24, "unit": "h"},
      {"measurement": "Indication of Early apoptosis (Bcl-2, annexin V, or caspase activation)", "setting": "[8]", "result": "Very Strong"},
      {"measurement": "Minimal CoQ10 concentration required for induction of early apoptosis, Concentration", "setting": "[8]", "result": 50, "unit": "µM"},
      {"measurement": "Minimal treatment time required for induction of early apoptosis, Time", "setting": "[8]", "result": 24, "unit": "h"},
      {"measurement": "Indication of Early apoptosis (Bcl-2, annexin V, or caspase activation)", "setting": "[9]", "result": "None"},
      {"measurement": "Indication of Early apoptosis (Bcl-2, annexin V, or caspase activation)", "setting": "[10]", "result": "None"},
      {"measurement": "Indication of Early apoptosis (Bcl-2, annexin V, or caspase activation)", "setting": "[11]", "result": "Strong"},
      {"measurement": "Minimal CoQ10 concentration required for induction of early apoptosis, Concentration", "setting": "[11]", "result": 20, "unit": "µM"},
      {"measurement": "Minimal treatment time required for induction of early apoptosis, Time", "setting": "[11]", "result": 24, "unit": "h"},
      {"measurement": "Minimal CoQ10 concentration required for induction of early apoptosis, Concentration", "setting": "[12]", "result": 5, "unit": "µM"},
      {"measurement": "Minimal treatment time required for induction of early apoptosis, Time", "setting": "[12]", "result": 1, "unit": "h"},
      {"measurement": "Indication of Early apoptosis (Bcl-2, annexin V, or caspase activation)", "setting": "[12]; cell wraps: Extremely / strong", "result": "Extremely"},
      {"measurement": "Indication of Early apoptosis (Bcl-2, annexin V, or caspase activation)", "setting": "[13]", "result": "Strong"},
      {"measurement": "Minimal CoQ10 concentration required for induction of early apoptosis, Concentration", "setting": "[13]", "result": 100, "unit": "µM"},
      {"measurement": "Minimal treatment time required for induction of early apoptosis, Time", "setting": "[13]", "result": 48, "unit": "h"},
      {"measurement": "Indication of Early apoptosis (Bcl-2, annexin V, or caspase activation)", "setting": "[14]", "result": "Strong"},
      {"measurement": "Minimal CoQ10 concentration required for induction of early apoptosis, Concentration", "setting": "[14]", "result": 100, "unit": "µM"},
      {"measurement": "Minimal treatment time required for induction of early apoptosis, Time", "setting": "[14]", "result": 48, "unit": "h"},
      {"measurement": "Indication of Early apoptosis (Bcl-2, annexin V, or caspase activation)", "setting": "[15]", "result": "None"},
      {"measurement": "Indication of Early apoptosis (Bcl-2, annexin V, or caspase activation)", "setting": "[16]", "result": "Very Strong"},
      {"measurement": "Minimal CoQ10 concentration required for induction of early apoptosis, Concentration", "setting": "[16]", "result": 25, "unit": "µM"},
      {"measurement": "Minimal treatment time required for induction of early apoptosis, Time", "setting": "[16]", "result": 24, "unit": "h"},
      {"measurement": "Indication of Early apoptosis (Bcl-2, annexin V, or caspase activation)", "setting": "[17]", "result": "None"},
      {"measurement": "Indication of Early apoptosis (Bcl-2, annexin V, or caspase activation)", "setting": "[18]", "result": "Slight"},
      {"measurement": "Minimal CoQ10 concentration required for induction of early apoptosis, Concentration", "setting": "[18]", "result": 200, "unit": "µM"},
      {"measurement": "Minimal treatment time required for induction of early apoptosis, Time", "setting": "[18]", "result": 72, "unit": "h"}
    ]}
  ]
}
